Active and inactive are the calls of the source. The rule behind the calls is not given here.
Tests used:
HT-29 = test: Antiproliferative activity against human HT-29 cells assessed as cell growth inhibition incubated for 72 hrs by CCK-8 assay; settings: HT-29, 72 h
MKN-1 [1] = test: Antiproliferative activity against human MKN-1 cells assessed as cell growth inhibition incubated for 72 hrs by CCK-8 assay; settings: MKN-1, 72 h
[2] = biological target: T1, Serine/threonine-protein kinase RIO1 (Homo sapiens) (UniProt Q9BRS2); test: Binding affinity to wild-type human full length RIOK1 (M1 to K568 residues) expressed in bacterial expression system assessed as residual activity at 1 uM by KINOMEscan assay relative to control
T1 sequence (whole entry): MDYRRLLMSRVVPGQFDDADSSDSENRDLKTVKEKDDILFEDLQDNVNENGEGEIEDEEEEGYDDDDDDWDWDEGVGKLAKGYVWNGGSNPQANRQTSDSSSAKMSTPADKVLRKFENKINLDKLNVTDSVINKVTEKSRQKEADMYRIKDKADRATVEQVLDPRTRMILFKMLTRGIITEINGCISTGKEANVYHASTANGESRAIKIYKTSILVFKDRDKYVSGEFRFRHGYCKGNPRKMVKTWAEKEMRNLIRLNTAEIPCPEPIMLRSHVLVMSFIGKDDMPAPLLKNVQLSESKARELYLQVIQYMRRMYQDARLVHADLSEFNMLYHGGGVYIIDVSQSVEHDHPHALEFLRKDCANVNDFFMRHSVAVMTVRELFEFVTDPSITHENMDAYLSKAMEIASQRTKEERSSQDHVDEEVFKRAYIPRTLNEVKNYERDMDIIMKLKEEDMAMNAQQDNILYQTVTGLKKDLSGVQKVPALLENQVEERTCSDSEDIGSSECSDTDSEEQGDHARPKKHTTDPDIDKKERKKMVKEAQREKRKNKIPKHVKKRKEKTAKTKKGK

[3] = biological target: T2, Serine/threonine-protein kinase RIO3 (Homo sapiens) (UniProt O14730); test: Binding affinity to wild-type human full length RIOK3 (M1 to E519 residues) expressed in bacterial expression system assessed as residual activity at 1 uM by KINOMEscan assay relative to control
T2 sequence (whole entry): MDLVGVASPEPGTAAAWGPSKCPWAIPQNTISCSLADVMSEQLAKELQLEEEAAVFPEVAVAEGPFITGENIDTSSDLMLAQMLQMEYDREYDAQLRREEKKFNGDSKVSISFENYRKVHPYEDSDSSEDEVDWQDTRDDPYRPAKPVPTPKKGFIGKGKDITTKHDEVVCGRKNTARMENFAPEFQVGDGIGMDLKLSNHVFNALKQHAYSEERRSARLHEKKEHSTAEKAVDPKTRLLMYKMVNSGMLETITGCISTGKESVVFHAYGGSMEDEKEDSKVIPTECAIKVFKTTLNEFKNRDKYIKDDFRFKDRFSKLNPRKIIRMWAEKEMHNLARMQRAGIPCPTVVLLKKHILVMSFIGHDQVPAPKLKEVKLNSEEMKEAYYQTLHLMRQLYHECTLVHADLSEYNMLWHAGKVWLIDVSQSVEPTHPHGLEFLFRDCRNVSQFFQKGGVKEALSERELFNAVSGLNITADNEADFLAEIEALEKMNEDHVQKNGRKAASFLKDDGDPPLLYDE

Homo sapiens [4] = organism: Homo sapiens; test: Binding affinity to human partial length FLT3 ITD D835V mutant expressed in mammalian expression system assessed as residual activity at 1 uM by KINOMEscan assay relative to control
Homo sapiens [5] = organism: Homo sapiens; test: Binding affinity to human partial length FLT3 ITD F691L mutant expressed in mammalian expression system assessed as residual activity at 1 uM by KINOMEscan assay relative to control
[6] = test system: T3, Receptor-type tyrosine-protein kinase FLT3 (Homo sapiens), P36888 [D835V]; test: Binding affinity to human partial length FLT3 D835V mutant (V592 to Y969 residues) expressed in mammalian expression system assessed as residual activity at 1 uM by KINOMEscan assay relative to control
T3 sequence (whole entry): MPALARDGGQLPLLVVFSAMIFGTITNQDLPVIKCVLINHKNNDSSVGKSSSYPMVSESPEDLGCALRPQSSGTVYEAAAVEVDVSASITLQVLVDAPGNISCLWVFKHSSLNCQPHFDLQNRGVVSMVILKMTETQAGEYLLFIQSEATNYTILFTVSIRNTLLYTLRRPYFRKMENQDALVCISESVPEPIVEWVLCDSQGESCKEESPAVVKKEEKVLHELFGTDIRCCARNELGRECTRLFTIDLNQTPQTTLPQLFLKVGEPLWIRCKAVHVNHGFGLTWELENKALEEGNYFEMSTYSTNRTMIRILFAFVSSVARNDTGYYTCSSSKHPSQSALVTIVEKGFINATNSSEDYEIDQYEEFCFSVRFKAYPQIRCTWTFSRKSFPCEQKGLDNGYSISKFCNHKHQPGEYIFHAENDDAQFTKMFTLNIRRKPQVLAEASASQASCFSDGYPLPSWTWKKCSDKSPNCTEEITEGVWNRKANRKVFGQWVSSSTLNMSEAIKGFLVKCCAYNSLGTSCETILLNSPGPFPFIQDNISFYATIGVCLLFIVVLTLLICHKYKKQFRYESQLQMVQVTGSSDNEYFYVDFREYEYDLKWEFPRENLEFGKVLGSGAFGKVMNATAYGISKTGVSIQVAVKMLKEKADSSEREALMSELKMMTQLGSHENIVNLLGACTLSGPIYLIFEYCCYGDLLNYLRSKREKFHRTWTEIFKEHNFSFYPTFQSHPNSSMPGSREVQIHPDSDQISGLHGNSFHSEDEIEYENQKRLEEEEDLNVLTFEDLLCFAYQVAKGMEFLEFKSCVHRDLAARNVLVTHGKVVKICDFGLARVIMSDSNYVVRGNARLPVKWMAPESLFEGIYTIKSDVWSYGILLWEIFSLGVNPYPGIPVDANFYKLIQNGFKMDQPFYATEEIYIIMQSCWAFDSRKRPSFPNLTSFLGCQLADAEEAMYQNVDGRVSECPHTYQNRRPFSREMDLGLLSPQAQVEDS

[7] = biological target: T1, Serine/threonine-protein kinase RIO1 (Homo sapiens); test: Binding affinity to RIOK1 in human MKN-1 cells assessed as negative shift in melting temperature at 5 uM incubated for 3 hrs followed by heat treatment at 52 to 62 degC for 3 mins by CETSA; assay type: cell-based; settings: time 183.0 min
[8] = biological target: T2, Serine/threonine-protein kinase RIO3 (Homo sapiens); test: Binding affinity to RIOK3 in human MKN-1 cells assessed as negative shift in melting temperature at 5 uM incubated for 3 hrs followed by heat treatment at 52 to 62 degC for 3 mins by CETSA; assay type: cell-based; settings: time 183.0 min
[9] = Aqueous solubility of the compound; assay type: physicochemical; settings: buffer
[10] = Oral bioavailability in Sprague-Dawley rat; assay type: ADME, organism-based; settings: in vivo
[11] = Cmax in Sprague-Dawley rat administered orally; assay type: ADME; design: route po; settings: in vivo, po
MKN-1 [12] = test: Antitumor activity against human MKN-1 cells xenografted in CB17-SCID mouse assessed as tumor growth inhibition at 25 mg/kg, ip qd for 18 consecutive days and measured once every 2 days relative to control; assay type: functional; settings: MKN-1, 432 h, time 18 day, read-out: TGI
[13] = Toxicity in CB17-SCID mouse xenografted with human MKN-1 cells assessed as mortality at 25 mg/kg, ip qd for 18 consecutive days; assay type: organism-based; settings: in vivo, 432 h, time 18 day
[14] = Solubility of compound in organic solvents; assay type: physicochemical
[15] = Toxicity in CB17-SCID mouse xenografted with human MKN-1 cells assessed as side effects at 25 mg/kg, ip qd for 18 consecutive days; assay type: organism-based; settings: in vivo, 432 h, time 18 day

Compound: Cc1ccnc(NC(=O)Cc2ccc3ccccc3c2)c1
- IC50 (HT-29): > 8 µM
- IC50 (MKN-1 [1]): > 8 µM

Compound: COc1ccc(-c2ccc3[nH]c(=O)c4nnn(-c5ccc(N6CCNCC6)c(C(F)(F)F)c5)c4c3c2)cn1
- Activity [2]: 100%
- Activity [3]: 87%
- Activity (Homo sapiens [4]): 4%
- Activity (Homo sapiens [5]): 3.6%
- Activity [6]: 28%
- Activity [7]: Active
- Activity [8]: Active
- IC50 (HT-29): 0.38 µM
- IC50 (MKN-1 [1]): 0.61 µM
- solubility [9]: Insoluble
- bioavailability [10]: 3.06%
- Cmax [11]: 13 ng/mL
- inhibition in vivo at 25 mg/kg (MKN-1 [12]): 30.9%
- Activity [13]: Non-Toxic
- solubility [14]: Insoluble
- Activity [15]: Non-Toxic

Compound: COc1ccc(-c2ccc3[nH]c(=O)c4nnn(-c5ccccc5)c4c3c2)cn1
- IC50 (HT-29): > 8 µM
- IC50 (MKN-1 [1]): > 8 µM

Reference: ChEMBL document CHEMBL5154917 (J Med Chem, 2022)
